Data set [1] relates to differentiated 3T3-L1 adipocytes. As to the kind of experiment: Glucose transport assay (2-deoxy-D-glucose uptake). In kind it is cell-based. As to conditions: 48 hr; for Fold Stimulation (50 μM) of 2-deoxy-D-glucose uptake, Insulin + Compound: 50 μM compound + 100 nM insulin; for fold induction at 50 µM: Mus musculus, 50 μM compound alone, read-out: Fold Stimulation (50 μM) of 2-deoxy-D-glucose uptake, Compound only. The method, then:
3T3-L1 fibroblasts (American Type Culture Collection) were plated and grown for 2 days postconfluence in Dulbecco's modified Eagle's medium (DMEM; 4,500 mg/L glucose, HyClone) supplemented 10% FBS, 10 μg/mL penicillin and streptomycin in an atmosphere of 5% CO2 at 37° C. Adipocyte differentiation was then induced using standard protocol. After 48 hr, the differentiation medium was replaced with maintenance medium containing DMEM supplemented with 10% FBS. The maintenance medium was changed every 3 days until the cells were utilized for experimentation. Glucose transport activity was measured in the presence or absence of insulin and the protocol was modified from Kletzien, R F et al. (1992) Molecular Pharmacology 41:393-398. Briefly, differentiated 3T3-L1 adipocytes were incubated with vehicle (DMSO), insulin (100 nM) alone, test compound (50 μM) alone and a combination of insulin (100 nM)+test compound (50 μM) for 48 hr. Medium was changed twice a day in the presence of compound. Glucose uptake was measured using 2-Deoxy-D-[1−^3H] glucose as label after 90 min incubation with each compound. […] In the series of compounds, one of the best result was obtained with 7-[2-(5-methyl-2-phenyl-4-oxazolyl)-ethoxy]-chroman-3-carboxylic acid (Example 1).

Data set [2] relates to db/db mice. As to the kind of experiment: Efficacy test for blood glucose lowering (db/db mice). In kind it is in vivo. As to conditions: 30 mg/kg/d oral; for Fatty acid % reduction / Insulin % reduction: plasma; for Glucose Max % efficacy: suspension in 0.5% CMC + 0.2% Tween 80; for Glucose Observed value: suspension in 0.5% CMC + 0.2% Tween 80, control 261.2. The procedure:
(§1) Mice used in this study were standard model of type II diabetes developed by Jackson Laboratories (Bar Harbor, Me.). Male, 8-week-old db/db mice were housed six per cage in hanging wire bottom cages with standard laboratory conditions. The mice had free access to normal chow (Purina Rodent Chow) and water. At the age of 11-12 weeks, mice were bled in the tail for glucose matching among the groups (n=6 per group). The grouped mice were then dosed orally with vehicle (CMC) or with compounds of formula I (30 mg/kg/d) for 7 days. Compound of formula I at 30 mg/kg/d was dosed as suspension in 0.5% CMC+0.2% Tween 80 in H2O. Fresh suspension was prepared for 8 days dosing and kept in a refrigerator. The suspension was administered by oral gavage daily in the morning. The control group received vehicle (dose 10 mL/kg). Blood glucose concentrations were monitored at basal and 3 hr post dose on day 4 and 8. For blood sampling, mice were placed in a restrainer and drop of blood was obtained by nick in the tip of the tail. Blood glucose concentrations were determined either by putting a drop of blood on a glucose strip for analysis by a glucometer or using a 10 μL plasma sample in a YSI (Yellow Spring Instruments, OH) analyzer. Results are expressed as absolute blood glucose concentrations (mg/dL) and % reduction that is achieved reduction relative to vehicle treated control group. Animals having more than 300 mg/dL of blood glucose were used for testing. Statistical significance (p<0.05) is given versus the appropriate sample in vehicle treated animals. On day 7, the mice were fasted overnight for 18 hrs and were bled in the tail for the glucose level checking then dosed with the testing compounds (30 mg/kg/d). After 2 hr, blood samples were taken and the rats were dosed with 10% glucose in water (10 ml/kg) orally and blood glucose was monitored at 15, 30, 60, 90 and 120 min after dosing. The blood samples were centrifuged and plasma samples were collected and analyzed for insulin, Tg and FFA.

For data set [3], the system named is db/db mice. As to the kind of experiment: Oral Glucose Tolerance Test (OGTT) in db/db mice. In kind it is in vivo. The settings on record: 30 mg/kg/d for 9 days; for AUC of Glucose in db/db, Observed value: control 40858. The method, then: as §1, with “FFA. An Oral Glucose Tolerance Test (OGTT) was performed both in db/db mice and in high fat (HF) rats after dosing 30 mg/kg/d of compounds of Examples 1 and 2 for 9 days. For OGTT and ITT studies, Sprague-Dawley rats were prepared by feeding high fat (HF) diet (60% calorie from fat) for 6 weeks. Before the study, they were matched into groups on the basis of blood glucose levels.” for “FFA.”

In the next data set the test system is high fat (HF) rats. Description: Oral Glucose Tolerance Test (OGTT) in high fat (HF) rats. In kind it is in vivo, Sprague-Dawley rats. As to conditions: 30 mg/kg/d for 9 days; for AUC of Glucose in high fat rat, Observed value: control 14053. The method, then: (§2) An Oral Glucose Tolerance Test (OGTT) was performed both in db/db mice and in high fat (HF) rats after dosing 30 mg/kg/d of compounds of Examples 1 and 2 for 9 days. For OGTT and ITT studies, Sprague-Dawley rats were prepared by feeding high fat (HF) diet (60% calorie from fat) for 6 weeks. Before the study, they were matched into groups on the basis of blood glucose levels.

The subject of a further data set is HF rat. As to the kind of experiment: Insulin tolerance test (ITT) in HF rat. In kind it is in vivo, Sprague-Dawley rats. As to conditions: 30 mg/kg oral, insulin 0.25 U/kg i.p. 2 hr later; for AUC of Glucose in high fat rat, Observed value: control 13359. The method, then:
as §2, with “levels. Insulin tolerance test (ITT) was performed in HF rat which were prepared in the same manner with OGTT test animal. On the day of the study, rats were orally dosed with the testing compounds (30 mg/kg) and 2 hr later, rats were dosed with insulin (0.25 U/kg, i.p.) in 0.1% BSA solution in saline. Blood glucose of the rat was measured at 15, 30, 60, 120 min after dose.” for “levels.”

The subject of another data set is STZ rat. As to the kind of experiment: Blood glucose lowering effect in STZ rat. In kind it is in vivo. The settings on record: STZ rat (data not shown).
Data set [4] is described as follows: Solubility in dosing vehicle. In kind it is physicochemical. An excerpt: It appeared that compounds of Examples 1 and 2 were not soluble in 0.5% CMC vehicle.
For data set [5], the system named is differentiated 3T3-L1 adipocytes. Description: Glucose transport assay (2-deoxy-D-glucose uptake). In kind it is cell-based.

`Cc1oc(-c2ccc(-c3ccccc3)cc2)nc1CCOc1ccc2c(c1)OCC(C(=O)O)C2` (stereo not shown) [Example 2, 7-[2-(5-Methyl-2-(4-phenyl)phenyl-4-oxazolyl)ethoxy]chromane-3-carboxylic acid]: in data set [1], the “Fold Stimulation (50 μM) of 2-deoxy-D-glucose uptake, Insulin + Compound” value amounted to 6.4 fold and the fold induction at 50 µM amounted to 1.5. Also, in the data set on db/db mice [2], the “Fatty acid % reduction” value is −21.1%, the Insulin % reduction was −72.7%, the “Glucose Max % efficacy” value amounted to 70.3% and the “Glucose Observed value” is 148.3 mg/dL. For the same molecule, in the data set with db/db mice [3], the “AUC of Glucose in db/db, % reduction” value was determined as 14.0% and the “AUC of Glucose in db/db, Observed value” turned out to be 32406 mg/dl × 120 min. Besides, in the data set with high fat (HF) rats, the “AUC of Glucose in high fat rat, % reduction” value amounted to 10.1% and the “AUC of Glucose in high fat rat, Observed value” came out at 12631 mg/dl × 120 min. Besides, in the data set on HF rat, the “AUC of Glucose in high fat rat, % reduction” value is on record as 4.2% and the “AUC of Glucose in high fat rat, Observed value” stood at 12796 mg/dl × 120 min. The “blood glucose lowering effect” value in the data set on STZ rat is reported as “did not reduce blood glucose”. The “solubility in 0.5% CMC vehicle” value in data set [4] was “not soluble”.
For the molecule `Cc1oc(-c2ccccc2)nc1CCOc1ccc2c(c1)OCC(C(=O)O)C2` (stereo not shown) [Example 1, 7-[2-(5-Methyl-2-phenyl-4-oxazolyl)ethoxy]chromane-3-carboxylic acid], in data set [1], the “Fold Stimulation (50 μM) of 2-deoxy-D-glucose uptake, Insulin + Compound” value was determined as 8.4 fold and the fold induction at 50 µM amounted to 1.3. Also, in the data set with db/db mice [2], the “Fatty acid % reduction” value is −33.7%, the Insulin % reduction is −62.4%, the “Glucose Max % efficacy” value amounted to 80.0% and the “Glucose Observed value” came out at 132.2 mg/dL. In the data set on db/db mice [3], the “AUC of Glucose in db/db, % reduction” value was found to be 41.5% and the “AUC of Glucose in db/db, Observed value” is reported as 28870 mg/dl × 120 min. For the same molecule, in the data set with high fat (HF) rats, the “AUC of Glucose in high fat rat, % reduction” value is recorded as 13.1% and the “AUC of Glucose in high fat rat, Observed value” was 12206 mg/dl × 120 min. For the same molecule, in the data set on HF rat, the “AUC of Glucose in high fat rat, % reduction” value was 27.7 (p < 0.02) % and the “AUC of Glucose in high fat rat, Observed value” stood at 11014 mg/dl × 120 min. For the same molecule, the “blood glucose lowering effect” value in the data set with STZ rat is “did not reduce blood glucose”. Further, in data set [4], the “solubility in 0.5% CMC vehicle” value is “not soluble”. The “glucose uptake, dose dependence on compound” value in data set [5] (0-100 μM compound in the presence of 100 nM insulin (FIG. 2)) is “dose-dependent manner”. In data set [5] (50 μM compound, 0.1-1,000 nM insulin (FIG. 3)), the “glucose uptake of insulin in presence of compound” value was “further enhanced glucose uptake of insulin in dose dependent manner”. The “stimulation of basal glucose uptake by compound per se” value in data set [5] (3T3-L1 adipocytes, no insulin, 0.1 to 100 μM) was “did not stimulate the basal glucose uptake”.
